In patent publication US10421765B2, “Tetrahydropyrido[4,3-d]pyrimidine inhibitors of ATR kinase” (Board of Regents, The University of Texas System, priority 2017, dated 2019):
Read-outs that look alike come from different tables or passages of the source.

Key:
[1] = system: ATR-driven phosphorylation of Chk1 kinase at Serine 345 in HT-29 colorectal adenocarcinoma cells; experiment: pCHK1 cellular assay (CHK1 p-Ser345 AlphaScreen SureFire); assay type: cell-based; conditions: 4-nitroquinoline N-oxide 12 uM, read-out: Cell IC50 (pCHK1 IC50 values)
Description: Inhibitors of ATR kinase are effective at inhibiting the ATR-driven phosphorylation of the downstream target Chk1 kinase at Serine 345, following the addition of 4-nitroquinoline N-oxide, a chemical used to induce DNA damage. Cellular IC50 for the inhibitors of ATR described herein were measured in HT-29 colorectal adenocarcinoma cells. HT-29 cells were routinely maintained in McCoy's 5A media (ATCC Catalog #30-2007) supplemented with 10% fetal bovine serum (Sigma Catalog #F2442) and 1× Penicillin-Streptomycin (Gibco Catalog #15140-122) using a humidified incubator (37° C., 5% CO2, and ambient O2).
In preparation for the CHK1 (p-Ser345) ALPHASCREEN® SUREFIRE® assay, cells were harvested and resuspended in McCoy's 5A media supplemented with 10% fetal bovine serum and 1× Penicillin-Streptomycin. Cells were seeded onto a 384-well black CELLSTAR® Tissue Culture Plate (VWR Catalog #89085-314) at a density of 13,000 cells/well in a volume of 40 uL. The microplate was incubated overnight (approximately 20 hours) at 37° C. with 5% CO2 and ambient O2. Stock solutions of the test compounds were prepared in 100% DMSO (Sigma, Catalog #D2650) and serially diluted 1:3 using 100% DMSO. Compounds were additionally diluted 1:33 in culture medium, and 10 ul/well were transferred to the tissue culture plate. Following the compound addition the microplate was incubated at 37° C. for 90 minutes. 10 uL of 4-nitroquinoline N-oxide (Sigma Aldrich Catalog #N8141-1G) diluted in media (final concentration 12 uM) were added to the tissue culture plate followed by a 120 minute incubation at 37° C. The cells were then washed with PBS and lysed using 10 uL/well SUREFIRE® Kit lysis buffer diluted to 1× in water (PerkinElmer Catalog #TGRCHK1S50K), with mixing on an orbital shaker at 500 rpm for 20 min at RT. Lysates were frozen at −20° C. overnight.
4 uL/well of lysate was then transferred from the tissue culture plate to a 384-well, white, low volume, PROXIPLATE™ (PerkinElmer Catalog #600828). 5 uL/well of the acceptor bead solution, prepared by diluting SUREFIRE® Kit activation buffer (PerkinElmer Catalog #TGRCHK1S50K) and ALPHASCREEN® Protein A acceptor beads (PerkinElmer Catalog #6760617R) in SUREFIRE® Kit reaction buffer (PerkinElmer Catalog #TGRCHK1S50K), were added to the lysates under subdued light and incubated at room temperature for 120 min. 2 uL/well of the donor bead solution, prepared by diluting ALPHASCREEN® Streptavidin donor beads (PerkinElmer Catalog #6760617R) in SUREFIRE® Kit dilution buffer (PerkinElmer Catalog #TGRCHK1S50K), were added under subdued light and incubated at room temperature for an addition 120 minutes. The pCHK1 ALPHASCREEN® signal was measured using an ENVISION® plate reader (PerkinElmer). IC50 values were calculated using a four-parameter logistic curve fit using Genedata Screener software. Percent of control for each compound concentration was calculated by the following formula: 100*(Compound−Min)/(Max−Min) where “Max” is the high control, DMSO, and “Min” is the low control, 5 uM ATR inhibitor.

ATR/ATRIP complex = ATR/ATRIP complex (Homo sapiens (Human), UniProt Q13535); experiment: ATR/ATRIP enzymatic assay (Caliper-based); assay type: biochemical; conditions: FAM-labeled RAD17 peptide, ATP
Sequence of ATR/ATRIP complex (Q13535 whole entry): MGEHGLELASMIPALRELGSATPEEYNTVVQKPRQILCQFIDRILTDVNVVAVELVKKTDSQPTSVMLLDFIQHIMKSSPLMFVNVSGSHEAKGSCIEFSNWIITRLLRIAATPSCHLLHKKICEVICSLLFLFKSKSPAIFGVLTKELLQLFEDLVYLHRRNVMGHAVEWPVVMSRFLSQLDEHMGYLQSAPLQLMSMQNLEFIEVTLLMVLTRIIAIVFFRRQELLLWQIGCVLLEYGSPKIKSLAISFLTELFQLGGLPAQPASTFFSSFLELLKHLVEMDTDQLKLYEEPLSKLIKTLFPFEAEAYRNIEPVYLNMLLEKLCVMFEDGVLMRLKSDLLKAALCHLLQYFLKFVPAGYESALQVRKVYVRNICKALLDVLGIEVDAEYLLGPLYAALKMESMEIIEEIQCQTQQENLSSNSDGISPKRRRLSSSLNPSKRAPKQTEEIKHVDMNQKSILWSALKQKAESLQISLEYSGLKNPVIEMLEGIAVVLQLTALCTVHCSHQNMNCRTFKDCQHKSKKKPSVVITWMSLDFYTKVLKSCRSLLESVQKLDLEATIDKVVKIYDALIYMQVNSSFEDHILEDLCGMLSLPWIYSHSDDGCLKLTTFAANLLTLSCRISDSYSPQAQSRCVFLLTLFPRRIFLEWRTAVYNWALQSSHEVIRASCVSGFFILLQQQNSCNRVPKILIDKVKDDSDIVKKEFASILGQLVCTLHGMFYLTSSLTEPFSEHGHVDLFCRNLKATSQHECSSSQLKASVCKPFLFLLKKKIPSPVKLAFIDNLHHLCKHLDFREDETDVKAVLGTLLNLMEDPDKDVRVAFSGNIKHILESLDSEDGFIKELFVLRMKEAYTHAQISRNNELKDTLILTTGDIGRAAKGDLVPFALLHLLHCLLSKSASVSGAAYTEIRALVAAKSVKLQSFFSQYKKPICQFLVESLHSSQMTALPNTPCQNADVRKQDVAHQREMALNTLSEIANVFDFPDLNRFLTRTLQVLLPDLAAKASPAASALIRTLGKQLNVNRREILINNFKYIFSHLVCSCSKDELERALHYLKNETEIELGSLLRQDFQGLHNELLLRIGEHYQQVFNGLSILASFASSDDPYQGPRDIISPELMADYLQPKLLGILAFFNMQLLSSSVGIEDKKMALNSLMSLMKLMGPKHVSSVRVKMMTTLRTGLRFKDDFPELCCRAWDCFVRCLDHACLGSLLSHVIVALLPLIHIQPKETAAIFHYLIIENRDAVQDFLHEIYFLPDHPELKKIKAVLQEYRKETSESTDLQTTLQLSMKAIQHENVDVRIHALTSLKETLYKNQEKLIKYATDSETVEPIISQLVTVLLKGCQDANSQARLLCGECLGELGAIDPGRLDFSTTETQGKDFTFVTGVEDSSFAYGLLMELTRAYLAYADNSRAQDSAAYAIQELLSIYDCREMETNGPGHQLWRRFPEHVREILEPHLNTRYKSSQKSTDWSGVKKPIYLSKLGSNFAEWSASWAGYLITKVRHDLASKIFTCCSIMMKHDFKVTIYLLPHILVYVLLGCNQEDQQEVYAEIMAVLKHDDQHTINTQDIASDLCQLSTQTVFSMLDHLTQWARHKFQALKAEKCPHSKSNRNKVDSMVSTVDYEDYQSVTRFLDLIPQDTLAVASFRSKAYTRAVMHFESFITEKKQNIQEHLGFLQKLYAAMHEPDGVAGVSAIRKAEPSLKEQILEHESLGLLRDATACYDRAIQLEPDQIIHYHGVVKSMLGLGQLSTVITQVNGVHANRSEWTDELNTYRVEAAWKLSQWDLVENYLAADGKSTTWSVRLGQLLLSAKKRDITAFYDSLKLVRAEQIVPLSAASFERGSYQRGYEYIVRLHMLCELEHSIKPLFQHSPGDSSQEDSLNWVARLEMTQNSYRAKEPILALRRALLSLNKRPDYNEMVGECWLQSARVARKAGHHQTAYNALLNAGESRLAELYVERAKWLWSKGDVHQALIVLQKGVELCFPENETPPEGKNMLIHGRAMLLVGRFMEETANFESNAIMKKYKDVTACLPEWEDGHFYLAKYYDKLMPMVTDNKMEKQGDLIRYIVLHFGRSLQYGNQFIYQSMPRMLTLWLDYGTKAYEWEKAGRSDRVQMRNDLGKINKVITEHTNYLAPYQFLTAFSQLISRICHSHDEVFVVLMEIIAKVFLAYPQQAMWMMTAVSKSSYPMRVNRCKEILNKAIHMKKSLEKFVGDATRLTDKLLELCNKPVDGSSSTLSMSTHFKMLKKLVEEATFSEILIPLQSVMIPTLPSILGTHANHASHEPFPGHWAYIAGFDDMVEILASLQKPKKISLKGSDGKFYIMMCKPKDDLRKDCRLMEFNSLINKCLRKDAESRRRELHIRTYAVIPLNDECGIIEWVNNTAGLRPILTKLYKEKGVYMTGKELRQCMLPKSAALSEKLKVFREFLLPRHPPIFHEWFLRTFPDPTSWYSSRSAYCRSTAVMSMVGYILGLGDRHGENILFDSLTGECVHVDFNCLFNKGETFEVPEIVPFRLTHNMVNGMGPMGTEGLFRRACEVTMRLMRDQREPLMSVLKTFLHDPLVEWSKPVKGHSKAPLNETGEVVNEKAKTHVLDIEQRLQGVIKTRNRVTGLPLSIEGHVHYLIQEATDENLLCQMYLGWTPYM
Sequence of ATR/ATRIP complex (Q8WXE1 whole entry partner): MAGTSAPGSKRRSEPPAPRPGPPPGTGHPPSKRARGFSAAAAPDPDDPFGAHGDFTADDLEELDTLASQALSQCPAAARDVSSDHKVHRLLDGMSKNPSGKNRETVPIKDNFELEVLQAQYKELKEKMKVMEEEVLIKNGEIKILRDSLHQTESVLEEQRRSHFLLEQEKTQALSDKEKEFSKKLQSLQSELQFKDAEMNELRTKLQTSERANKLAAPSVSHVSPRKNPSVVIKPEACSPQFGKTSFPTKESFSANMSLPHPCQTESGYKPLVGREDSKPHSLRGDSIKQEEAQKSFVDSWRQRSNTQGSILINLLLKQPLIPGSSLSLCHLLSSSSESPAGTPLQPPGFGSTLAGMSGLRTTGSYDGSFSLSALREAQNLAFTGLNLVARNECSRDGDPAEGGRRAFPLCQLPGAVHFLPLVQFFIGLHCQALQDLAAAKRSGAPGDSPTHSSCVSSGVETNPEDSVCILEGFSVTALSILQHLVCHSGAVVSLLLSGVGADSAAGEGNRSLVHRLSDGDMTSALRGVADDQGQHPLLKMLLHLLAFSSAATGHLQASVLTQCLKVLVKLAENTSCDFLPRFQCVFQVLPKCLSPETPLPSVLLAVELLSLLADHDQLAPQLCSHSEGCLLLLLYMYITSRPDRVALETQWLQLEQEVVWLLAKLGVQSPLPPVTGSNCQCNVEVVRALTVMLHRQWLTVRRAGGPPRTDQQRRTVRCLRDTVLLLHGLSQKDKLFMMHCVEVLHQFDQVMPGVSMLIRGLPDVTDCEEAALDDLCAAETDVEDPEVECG
Description: Human full-length FLAG-TEV-ATR and His6-ATRIP were co-expressed in HEK293 cells. The cell pellet (20 g) was harvested and lysed in 100 mL of lysis buffer (20 mM Tris-HCl pH 7.5 at room temperature, 137 mM NaCl, 10% glycerol, 1 mM DTT, 1% (v/v) Tween-20, 0.1% (v/v) NP-40, complete protease inhibitor cocktail tablets, phosphatase inhibitor cocktail tablets, 2 mM MgCl2, 0.2 mM EDTA, and 1 mM ATP). After sonication and centrifugation, the supernatant was incubated at 4° C. for 3 hours with 1 mL of anti-FLAG resin (Sigma catalog #A2220) that had been pre-equilibrated in buffer A (20 mM Tris-HCl pH 7.5 at room temperature, 137 mM NaCl, 10% glycerol, 1 mM DTT, 2 mM MgCl2, and 0.2 mM EDTA). The sample was loaded into a column, and then washed with buffer A three times. Protein was subsequently eluted with 2 ml of buffer B (buffer A+200 μg/ml 3×FLAG peptide).
The ability of new chemical matter to inhibit the ATR catalytic activity in this ATR/ATRIP complex was assessed using a Caliper-based assay. A 2x enzyme solution (i.e., 4 nM enzyme) was prepared using 1× Kinase Reaction Buffer (25 mM HEPES pH 8, 0.0055% Brij-35, 10 mM MnCl2, and 1 mM DTT). A 2x peptide solution was then prepared consisting of 10 uM FAM-labeled RAD17 peptide (GL Biochem, catalog #524315) in 1× Kinase Reaction Buffer supplemented with 2 μM ATP. 10 μL of the 2× enzyme solution was transferred to an assay plate containing 60 nL of test compound (from a 3× serial dilution) in 100% DMSO. Following a 30 minute incubation at 28° C., 10 μL of the 2× peptide solution was then transferred to the same assay plate. The reaction was allowed to incubate at 28° C. for 6 hours. After adding […] of stop buffer (100 mM HEPES pH 7.5, 0.015% Brij-35, 0.2% Coating-3 Reagent (PerkinElmer, catalog #PN760050), and 50 mM EDTA), data were collected on a Caliper instrument. Conversion values were converted to inhibition values via the following equation: % inhibition=(max−conversion)/(max−min)*100, whereby “max” corresponds to the DMSO control and “min” corresponds to the low control. IC50 values were calculated using the following equation in XLFit: Y=Bottom+(Top−Bottom)/1+(IC50/X)^HillSlope).

[2] = Homo sapiens, HT-29, HT-29 cells
[3] = estimated range, read-out: ATR/ATRIP Enzyme IC50 (estimated class)
[4] = read-out: ATR/ATRIP Enzyme IC50

IC50 [1, 2] | IC50 (ATR/ATRIP complex; [3]) | IC50 (ATR/ATRIP complex; [4]) | ATR/ATRIP Enzyme IC50 (ATR/ATRIP complex) | Molecule | IC50 ([1]; HT-29 cells)
88 nM | 1000 to 10000 nM | – | – | C[C@@H]1Cc2ncnc(N3C[C@H]4CC[C@@H](C3)C4NC(=O)CC(F)(F)F)c2CN1c1cc(Cl)nc2[nH]ccc12 (stereo partly drawn) [Example 26, N-{3-[(7R)-6-{6-chloro-1H-pyrrolo[2,3-b]pyridin-4-yl}-7-methyl-5H,6H,7H,8H-pyrido[4,3-d]pyrimidin-4-yl]-3-aza-bicyclo[3.2.1]octan-8-yl}-3,3-trifluoro-propanamide] | –
12 nM | – | 329 nM | – | C[C@@H]1Cc2ncnc(N3CCC(C(C)(C)O)CC3)c2CN1c1cc(Cl)nc2[nH]ccc12 [Example 30, 2-{1-[(7R)-6-{6-chloro-1H-pyrrolo[2,3-b]pyridin-4-yl}-7-methyl-5H,6H,7H,8H-pyrido[4,3-d]pyrimidin-4-yl]-piperidin-4-yl}propan-2-ol] | –
– | – | 279 nM | – | N-((1R,5S,8R)-3-((R)-7- methyl-6-(1H-pyrrolo- [2,3-b]pyridin-4-yl)- 5,6,7,8-tetrahydropyrido- [4,3-d]pyrimidin-4-yl)-3- azabicyclo[3.2.1]octan-8- yl)methanesulfonamide [Example 74] | 31 nM
24 nM | – | 899 nM | – | C[C@@H]1Cc2ncnc(C3CCC(NS(C)(=O)=O)CC3)c2CN1c1cc(Cl)nc2[nH]ccc12 (stereo partly drawn) [Example 40, (R)-N-(4-(6-(6-chloro-1H-pyrrolo[2,3-b]pyridin-4-yl)-7-methyl-5,6,7,8-tetrahydropyrido[4,3-d]pyrimidin-4-yl)cyclohexyl)methane-sulfonamide] | –
28 nM | – | 518 nM | – | C[C@@H]1Cc2ncnc(N3CCC(O)CC3)c2CN1c1cc(Cl)nc2[nH]ccc12 [Example 12, (R)-1-(6-(6-Chloro-1H-pyrrolo[2,3-b]pyridin-4-yl)-7-methyl-5,6,7,8-tetrahydropyrido[4,3-d]pyrimidin-4-yl)piperidin-4-ol] | –
92 nM | – | 1040 nM | – | CNC(=O)[C@@H]1CCCN(c2ncnc3c2CN(c2cc(Cl)nc4[nH]ccc24)[C@H](C)C3)C1 [Example 44, (R)-1-((R)-6-(6-Chloro-1H-pyrrolo[2,3-b]pyridin-4-yl)-7-methyl-5,6,7,8-tetrahydropyrido[4,3-d]pyrimidin-4-yl)-N-methylpiperidine-3-carboxamide] | –
18 nM | – | 111 nM | – | C[C@@H]1Cc2ncnc(C3=CCC(NS(C)(=O)=O)CC3)c2CN1c1cc(Cl)nc2[nH]ccc12 (stereo partly drawn) [Example 73, N-(4-((R)-6-(6-chloro-1H-pyrrolo[2,3-b]pyridin-4-yl)-7-methyl-5,6,7,8-tetrahydropyrido[4,3-d]-pyrimidin-4-yl)cyclohex-3-en-1-yl)methane-sulfonamide] | –
9 nM | – | 140 nM | – | CNC(=O)[C@H]1CCCN(c2ncnc3c2CN(c2cc(Cl)nc4[nH]ccc24)[C@H](C)C3)C1 [Example 67, (S)-1-((R)-6-(6-chloro-1H-pyrrolo[2,3-b]pyridin-4-yl)-7-methyl-5,6,7,8-tetrahydropyrido[4,3-d]-pyrimidin-4-yl)-N-methylpiperidine-3-carboxamide] | –
209 nM | – | 878 nM | – | CS(=O)(=O)N1CCC(c2ncnc3c2CN(c2ccnc4[nH]ccc24)[C@H](CF)C3)CC1 [Example 52b, (S)-7-(fluoromethyl)-4-(1-(methylsulfonyl)piperidin-4-yl)-6-(1H-pyrrolo[2,3-b]pyridin-4-yl)-5,6,7,8-tetrahydropyrido[4,3-d]pyrimidine] | –
10000 nM | – | – | no fit | CS(=O)(=O)N1CCC(c2ncnc3c2CN(c2ccnc4[nH]ccc24)[C@@H](C(F)F)C3)CC1 [Example 53a, (R)-7-(difluoromethyl)-4-(1-(methylsulfonyl)piperidin-4-yl)-6-(1H-pyrrolo[2,3-b]pyridin-4-yl)-5,6,7,8-tetrahydropyrido[4,3-d]pyrimidine] | –
83 nM | – | 929 nM | – | C[C@@H]1Cc2ncnc(N3C[C@H]4CC[C@@H](C3)[C@@H]4NS(C)(=O)=O)c2CN1c1cc(Cl)nc2[nH]ccc12 [Example 38, N-((1R,5S)-(8-anti)-3-((R)-6-(6-chloro-1H-pyrrolo[2,3-b]pyridin-4-yl)-7-methyl-5,6,7,8-tetrahydropyrido[4,3-d]pyrimidin-4-yl)-3-azabicyclo[3.2.1]octan-8-yl)methanesulfonamide] | –
56 nM | – | 364 nM | – | C[C@@H]1Cc2ncnc(N3CCCC(C#N)C3)c2CN1c1ccnc2[nH]ccc12 (stereo partly drawn) [Example 83, 1-((R)-7-methyl-6-(1H-pyrrolo[2,3-b]pyridin-4-yl)-5,6,7,8-tetrahydro-pyrido[4,3-d]pyrimidin-4-yl)piperidine-3-carbonitrile] | –
21 nM | – | 320 nM | – | C[C@@H]1Cc2ncnc(N3CC(O)C3)c2CN1c1cc(Cl)nc2[nH]ccc12 [Example 77, (R)-1-(6-(6-chloro-1H-pyrrolo[2,3-b]pyridin-4-yl)-7-methyl-5,6,7,8-tetrahydropyrido[4,3-d]-pyrimidin-4-yl)azetidin-3-ol] | –
285 nM | 1000 to 10000 nM | – | – | CCS(=O)(=O)N1CCCC(c2ncnc3c2CN(c2cc(Cl)nc4[nH]ccc24)[C@H](C)C3)C1 (stereo partly drawn) [Example 24, 3-[(7R)-6-{6-chloro-1H-pyrrolo[2,3-b]pyridin-4-yl}-7-methyl-5H,6H,7H,8H-pyrido[4,3-d]pyrimidin-4-yl]-1-(ethanesulfonyl)-piperidine] | –

Molecule | IC50 [1, 2] | IC50 (ATR/ATRIP complex; [3]) | IC50 (ATR/ATRIP complex; [4]) | ATR/ATRIP Enzyme IC50 (ATR/ATRIP complex) | IC50 ([1]; HT-29 cells)
C[C@@H]1Cc2ncnc(C3C[C@H]4CC[C@@H](C3)N4S(C)(=O)=O)c2CN1c1cc(Cl)nc2[nH]ccc12 (single isomer, unassigned) [Example 11b] | – | – | 329 nM | – | 29 nM
C[C@@H]1Cc2ncnc(C3CCN(S(C)(=O)=O)CC3)c2CN1c1cc(OC2CCC2)nc2[nH]ccc12 [Example 99, (R)-6-(6-cyclobutoxy-1H-pyrrolo[2,3-b]pyridin-4-yl)-7-methyl-4-(1-(methylsulfonyl)piperidin-4-yl)-5,6,7,8-tetrahydro-pyrido[4,3-d]pyrimidine] | 9 nM | – | 75 nM | – | –
